Assays:
CD-1 (ICR)-nu/nu mice [1] = test: Moisture content of the tail skin of nude mice after 4 weeks of oral feeding (Corneometer); assay type: in vivo, mouse; conditions: for increase of the moisture content of the skin: end vs start of administration; for Increase Rate of Moisture: value at end of feeding with start = 100
Procedure: (§1) Effects of the skin beautifier according to the present invention were investigated by an animal test using nude mice.
(§2) A sphingomyelin raw material (Phospholac 500; manufactured by NZMP) containing 10% of sphingomyelins was dissolved in deionized water as shown in Table 1. The solution was heated to 50° C. and then mixed under stirring with an ultradisperser (ULTRA-TURRAX T-25; manufactured by IKA Japan) at 9500 rpm for 20 minutes to prepare Test Feeds 1 to 3.
(§3) Five-week old CD-1 (ICR)-nu/nu mice were divided into the following 4 test groups (10 mice in each group), namely, (Group A) a group receiving 10 g of physiological saline per kg of mouse body weight, (Group B) a group receiving 10 g of the Test Feed 1 per kg of mouse body weight, (Group C) a group receiving 10 g of the Test Feed 2 per kg of mouse body weight, and (Group D) a group receiving 10 g of the Test Feed 3 per kg of mouse body weight. Mice in all the groups were fed by orally administering the feed once daily by gavage feeding for 4 weeks. Moisture contents and transepidermal water losses in the tail skin of each mouse were measured at the start and the end of the feeding. Values at the end of the feeding (rates of increase) were calculated by assuming each of the values at the start of the feeding to be 100. The moisture contents of the skin and the transepidermal water losses were measured using Corneometer and Tewameter, respectively, which were manufactured by Courage+Khazaka.

CD-1 (ICR)-nu/nu mice [2] = test: Transepidermal water loss in the tail skin of nude mice after 4 weeks of oral feeding (Tewameter); assay type: in vivo, mouse; conditions: for Increase Rate of Transepidermal Water Loss: value at end of feeding with start = 100; for increase of the transepidermal water loss: after 4-week administration
Procedure: as §1, §2, §3

[3] = Group B, Test Feed 1, sphingomyelin 2 mg/kg orally once daily for 4 weeks
[4] = Group C, Test Feed 2, sphingomyelin 5 mg/kg orally once daily for 4 weeks
[5] = Group D, Test Feed 3, sphingomyelin 10 mg/kg orally once daily for 4 weeks
[6] = oral administration, nude mice, covers moisture content and TEWL

Which results are given for sphingomyelin?
increase of the moisture content of the skin (CD-1 (ICR)-nu/nu mice [1]; Group B (printed Group 13), 2 mg/kg orally): about 1.5 times; Increase Rate of Moisture (CD-1 (ICR)-nu/nu mice [1]; [3]): 155%; increase of the moisture content of the skin (CD-1 (ICR)-nu/nu mice [1]; Group C, 5 mg/kg orally): about 2.5 times; Increase Rate of Moisture (CD-1 (ICR)-nu/nu mice [1]; [4]): 245%; increase of the moisture content of the skin (CD-1 (ICR)-nu/nu mice [1]; Group D, 10 mg/kg orally): about 2.5 times; Increase Rate of Moisture (CD-1 (ICR)-nu/nu mice [1]; [5]): 253%; dose at which the effects (skin moisture increased, transepidermal water loss decreased) were observed (CD-1 (ICR)-nu/nu mice [1]; [6]): ≥ 2 mg per kg of mouse body weight; dose at which the effects (skin moisture increased, transepidermal water loss decreased) were significant (CD-1 (ICR)-nu/nu mice [1]; [6]): ≥ 5 mg per kg of mouse body weight; Increase Rate of Transepidermal Water Loss (CD-1 (ICR)-nu/nu mice [2]; [3]): 152%; increase of the transepidermal water loss (CD-1 (ICR)-nu/nu mice [2]; Group C, 5 mg/kg orally): about 1.4 times; Increase Rate of Transepidermal Water Loss (CD-1 (ICR)-nu/nu mice [2]; [4]): 137%; increase of the transepidermal water loss (CD-1 (ICR)-nu/nu mice [2]; Group D, 10 mg/kg orally): about 1.4 times; Increase Rate of Transepidermal Water Loss (CD-1 (ICR)-nu/nu mice [2]; [5]): 140%

Source: patent publication US8920822B2, “Skin beautifier” (Megmilk Snow Brand Co., Ltd., priority 2004, dated 2014)
